Test results taken from patent publication US4755511A, “Tricyclic pyridazinone compounds” (Smith Kline & French Laboratories Limited, priority 1984, dated 1988).

What was measured:
[1] = Curran et al, J. Med. Chem. 1974, p 273; cited from earlier work
[2] = tested on: left ventricular dp/dt max; experiment: Cardiac stimulant activity in vivo in anaesthetised cats (left ventricular dp/dt max, i.v.); parameters: species or system cat; key to Relative Duration: ***: Long; **: medium; *: short; settings: for ED50: Felis catus, read-out: ED50 (dose to increase left ventricular dp/dt max by 50%), intravenous, anaesthetised cats pretreated with ganglion blocker (mecamylamine or pempidine) and propranolol; for Relative Duration: estimated in the anaesthetised cats following i.v. administration
ventricular strips = experiment: Cardiac stimulant activity in vitro: force of contraction of electrically stimulated guinea pig right ventricular strips; settings: Cavia porcellus; 50% increase in force of contraction; 0.5 Hz stimulation, Krebs Henseleit solution, 37° C.
Procedure: The compounds of formula (I) and their pharmaceutically acceptable salts are tested for cardiac stimulant activity following a procedure based on that of S. […]. Pharm & Exp. Therapeutics, 200, 352-362 (1977)). Guinea pigs (500-700 g) of either sex are sacrificed and the hearts are quickly removed and transferred to a dissecting dish containing oxygenated bathing fluid. While in the bathing medium, the right ventricle is cut into two strips. The strips are each suspended in a 75 ml bath containing Krebs Henseleit solution at 37° C. and the bath is bubbled with 95% oxygen and 5% carbon dioxide. The ventricular strips are electrically stimulated at a frequency of 0.5 Hz, at double the threshold voltage. A resting tension of 1.0 g is applied to the strips and the tension is kept constant by readjustment during an equilibration period of 60 minutes. The bathing fluid is frequently changed during this period. When a steady base line is obtained, a compound under test is added to the bathing fluid and a cumulative concentration response curve is plotted. […] In the above test method the compounds of the Examples gave the following data : […]

SMILES | hypotensive activity [1] | ED50 [2] [µmol/kg] | Relative Duration [2] | EC50 (ventricular strips) [µM]
COc1ccc2c(c1)CCC1CC(=O)NN=C21 (stereo not drawn) [8-Methoxy-4,4a,5,6-tetrahydrobenzo[h]cinnolin-3[2H]-one] | not showing any hypotensive activity | – | – | –
Nc1ccc2c(c1)CC1CC(=O)NN=C21 (stereo not drawn) [Example 1, 7-Amino-4,4a-dihydro-[5H]-indeno[1,2-c]pyridazin-3[2H]-one] | – | 1.8 | ** | 14
CC12CC(=O)NN=C1c1ccc(C(N)=O)cc1C2 (stereo not drawn) [Example 3, 7-Carboxamido-4,4a-dihydro-4a-methyl-[5H]-indeno[1,2-C]-pyridazin-3[2H]-one] | – | 0.4 | * | 27
COc1ccc2c(c1)CC1(C)CC(=O)NN=C21 (stereo not drawn) [Example 7, 4,4a-Dihydro-7-methoxy-4a-methyl-[5H]-indeno[1,2-c]-pyridazin-3[2H]-one] | – | 1.4 | ** | 21
COc1ccc2c(c1)CCC1(C)CC(=O)NN=C21 (stereo not drawn) [Example 10, 8-Methoxy-4a-methyl-4,4a,5,6-tetrahydrobenzo[h]cinnolin-3[2H]-one] | – | 0.2 | * | 23
CN=C(NC#N)Nc1ccc2c(c1)CCC1CC(=O)NN=C21 (stereo not drawn) [Example 15, 8-(N^2 -Methyl-N^3-cyanoguanidino)-4,4a,5,6-tetrahydrobenzo-[h]cinnolin-3[2H]-one] | – | 1.2 | ** | 22
NC(=O)c1ccc2c(c1)CCC1CC(=O)NN=C21 (stereo not drawn) [Example 17, 8-Carboxamido-4,4a,5,6-tetrahydrobenzo[h]cinnolin-3[2H]-one] | – | 1.2 | ** | –
CC12CCc3cc(C(N)=O)ccc3C1=NNC(=O)C2 (stereo not drawn) [Example 19, 8-Carboxamido-4a-methyl-4,4a,5,6-tetrahydrobenzo[h]cinnolin-3[2H]-one] | – | 1.6 | ** | –
COc1ccc2c(c1)CCc1cc(=O)[nH]nc1-2 [dehydro analogue, 5,6-Dihydro-8-methoxybenzo[h]cinnolin-3[2H]-one] | not showing any hypotensive activity | – | – | –
